This is an account of results in patent US20070010568A1, “Substituted azabicyclo hexane derivatives as muscarinic receptor antagonists” (priority 2003, published 2007).

One experiment addresses T1, M3 muscarinic receptor (Rattus norvegicus, UniProt P08483).
T1 construct: Submandibular glands and heart were isolated and placed in ice cold homogenising buffer; from tissue; host or cells: rat submandibular gland membrane homogenate
Put plainly: Radioligand binding assay, [3H]-N-methylscopolamine, rat submandibular gland membranes. The conditions noted are these: [3H]NMS, 24-25° C., read-out: Receptor Binding Assay M3 (pKi) (converted). The protocol: (§1) The affinity of test compounds for M2 and M3 muscarinic receptor subtypes was determined by [^3H]-N-methylscopolamine binding studies using rat heart and submandibular gland respectively as described by Moriya et al., (Life Sci., 1999; 64 (25): 2351-2358).
(§2) Membrane preparation: Submandibular glands and heart were isolated and placed in ice cold homogenising buffer (EPES 20 mM, 10 mM EDTA, pH 7.4) immediately after sacrifice. The tissues were homogenised in 10 volumes of homogenising buffer and the homogenate was filtered through two layers of wet gauze and filtrate was centrifliged at 500 g for 10 min. The supernatant was subsequently centrifuged at 40,000 g for 20 min. The pellet thus obtained was resuspended in same volume of assay buffer (HEPES 20 mM, EDTA 5 mM, pH 7.4) and were stored at −70° C. until the time of assay.
(§3) Ligand binding assay: The compounds were dissolved and diluted in DMSO. The membrane homogenates (150-250 μg protein) were incubated in 250 μl of assay buffer (HEPES 20 mM, pH 7.4) at 24-25° C. for 3 h. Non-specific binding was determined in the presence of 1 μM atropine. The incubation was terminated by vaccum filtration over GF/B fiber filters(Wallac). The filters were then washed with ice cold 50 mM Tris HCl buffer (pH 7.4). The filter mats were dried and bound radioactivity retained on filters was counted. The IC50 & Kd were estimated by using the non-linear curve fitting program using G Pad Prism software. The value of inhibition constant Ki was calculated from competitive binding studies by using Cheng & Prusoff equation (Biochem Pharmacol, 1973,22: 3099-3108), Ki=IC50/(1+L/Kd), where L is the concentration of [^3H]NMS used in the particular experiment. pKi=−log Ki Functional Experiments Using Isolated Rat Bladder: Methodology: […]

The next experiment concerns the target T2, M2 muscarinic receptor (Rattus norvegicus, UniProt P10980).
T2 construct: Submandibular glands and heart were isolated and placed in ice cold homogenising buffer; from tissue; host or cells: rat heart membrane homogenate
T2 sequence (P10980 1-466): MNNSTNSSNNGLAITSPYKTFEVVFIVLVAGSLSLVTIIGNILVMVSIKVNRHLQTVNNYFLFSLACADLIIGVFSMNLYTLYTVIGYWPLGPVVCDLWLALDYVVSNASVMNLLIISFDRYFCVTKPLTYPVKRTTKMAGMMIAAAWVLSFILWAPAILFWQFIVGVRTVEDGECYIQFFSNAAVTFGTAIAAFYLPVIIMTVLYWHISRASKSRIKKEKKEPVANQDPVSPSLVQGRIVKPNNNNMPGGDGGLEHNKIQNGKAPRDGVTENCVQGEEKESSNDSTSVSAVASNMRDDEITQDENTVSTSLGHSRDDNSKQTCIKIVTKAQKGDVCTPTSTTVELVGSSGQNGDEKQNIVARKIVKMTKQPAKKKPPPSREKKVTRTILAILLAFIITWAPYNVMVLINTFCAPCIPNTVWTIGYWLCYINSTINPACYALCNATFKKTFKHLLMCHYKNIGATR
Put plainly: Radioligand binding assay, [3H]-N-methylscopolamine, rat heart membranes. The following applies: [3H]NMS, 24-25° C., read-out: Receptor Binding Assay M2 (pKi) (converted). The protocol: as §1, §2, §3

T1 sequence (P08483 whole entry): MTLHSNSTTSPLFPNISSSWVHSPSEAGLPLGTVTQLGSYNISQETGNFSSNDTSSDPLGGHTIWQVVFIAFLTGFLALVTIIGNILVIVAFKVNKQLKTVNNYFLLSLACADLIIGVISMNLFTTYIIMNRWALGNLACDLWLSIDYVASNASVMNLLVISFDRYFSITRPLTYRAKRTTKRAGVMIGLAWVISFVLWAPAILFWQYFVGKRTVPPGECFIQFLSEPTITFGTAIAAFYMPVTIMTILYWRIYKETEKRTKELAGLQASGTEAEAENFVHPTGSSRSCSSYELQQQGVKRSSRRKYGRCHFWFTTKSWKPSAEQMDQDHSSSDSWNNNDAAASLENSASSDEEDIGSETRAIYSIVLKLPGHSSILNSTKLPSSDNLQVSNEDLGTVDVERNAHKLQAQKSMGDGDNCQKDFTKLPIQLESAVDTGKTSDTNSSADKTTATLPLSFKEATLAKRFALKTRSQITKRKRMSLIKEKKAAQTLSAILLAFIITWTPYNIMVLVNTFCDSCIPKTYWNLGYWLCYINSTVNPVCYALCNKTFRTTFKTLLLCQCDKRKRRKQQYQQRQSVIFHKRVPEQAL

Turning to `O=C(CC(c1ccccc1)(c1ccccc1)c1ccccc1)N[C@H]1[C@@H]2CN(Cc3ccccc3)C[C@@H]21` [Compound No. 1, (1α, 5α, 6α)-N-[3-benzyl-3-azabicyclo[3.1.0]-hexyl-6-amino-yl]-3,3,3-triphenylpropionaniide], the Ki on M3 muscarinic receptor and at M2 muscarinic receptor was more than 1 µM each time.
As to `CC(C)=CCCN1C[C@@H]2[C@H](C1)[C@H]2NC(=O)CC(c1ccccc1)(c1ccccc1)c1ccccc1` [Compound No. 2, (1α, 5α, 6α)-N-[3-(4-methyl-3-pentenyl)-3-azabicyclo[3.1.0]-hexyl-6-amino-yl]-3,3,3-triphenyl propionamide], the Ki at M3 muscarinic receptor and at M2 muscarinic receptor was more than 1 µM each time.
Take `O=C(CC(c1ccccc1)(c1ccccc1)c1ccccc1)N[C@H]1[C@@H]2CN(CCc3ccc4c(c3)OCO4)C[C@@H]21` [Compound No. 3, (1α, 5α, 6α)-N-[3-{2-(3,4-methylenedioxy-phenyl)ethyl}-3-azabicyclo [3.1.0]-hexyl-6-amino-yl]-3,3,3-triphenylpropionamide]: the Ki at M3 muscarinic receptor and on M2 muscarinic receptor was more than 1 µM each time.
Take `O=C(CC(c1ccccc1)(c1ccccc1)c1ccccc1)N[C@H]1[C@@H]2CN(CC(=O)c3ccc4c(c3)CCO4)C[C@@H]21` [Compound No. 4, (1α, 5α, 6α)-N-[3-{2-oxo-2-(2,3-dihydrobenzofuran-5-yl)ethyl}-3-azabicyclo[3.1.0]-hexyl-6-amino-yl]-3,3,3-triphenyl propionamide]: the Ki on M3 muscarinic receptor and at M2 muscarinic receptor was more than 1 µM throughout.
Turning to `O=C(CCNC(=O)CNC(=O)CC(c1ccccc1)(c1ccccc1)c1ccccc1)NC[C@@H]1[C@H]2CN(Cc3ccccc3)C[C@@H]12` [Compound No. 5, (1α, 5α, 6α)-N-[(3-oxopropyl)amino-2-oxoethyl-3-benzyl-3-azabicyclo [3.1.0]-hexyl-6-aminomethyl]-3,3,3-triphenyl propionamide], the Ki at M3 muscarinic receptor and on M2 muscarinic receptor was more than 1 µM in each case.
Consider `O=C(CNC(=O)CC(c1ccccc1)(c1ccccc1)c1ccccc1)NCCC(=O)N[C@H]1[C@@H]2CN(Cc3ccccc3)C[C@@H]21` [Compound No. 6, (1α, 5α, 6α)-N-[(3-oxopropyl]amino-2-oxoethyl-3-benzyl-3-azabicyclo [3.1.0]-hexyl-6-amino-yl]-3,3,3-triphenyl propionamide], for which the Ki at M3 muscarinic receptor and at M2 muscarinic receptor was more than 1 µM each time.
Consider `O=C(N[C@H]1[C@@H]2CNC[C@@H]21)C(O)(c1ccc(F)cc1)c1ccc(F)cc1` [Compound No. 7, (1α, 5α, 6α)-N-[3-azabicylo[3.1.0]-hexyl-6-amino-yl]-2-hydroxy-2,2-bis-4-fluorophenyl acetamide], for which the Ki at M3 muscarinic receptor and on M2 muscarinic receptor was more than 1 µM in each case.
With `CCCOC(C(=O)N[C@H]1[C@@H]2CNC[C@@H]21)(c1ccc(F)cc1)c1ccc(F)cc1` [Compound No. 8, (1α, 5α, 6α)-N-[3-azabicyclo[3.1.0]-hexyl-6-amino-yl]-2-propyloxy-2,2-bis-4-fluorophenyl acetamide], the Ki on M3 muscarinic receptor and at M2 muscarinic receptor was more than 1 µM in each case.
